≈ marks a conversion by molar mass, not a printed value. Where “and” joins values, the source holds several entries; their conditions need not be identical. Equal entries are not always repeated. Where two headings read alike, the source gives them in different places.
Key:
[1] = system: Streptococcus pneumoniae ATCC 6303 LRP 35; assay: Minimum bactericidal concentration (MBC); assay type: cell-based
Text: (§1) the bacterial power, expressed as the minimum bactericidal power (MBC) against some Gram positive aerobic stocks (table 5).

[2] = system: Corynebacterium diphteriae LRP 24; assay: Minimum bactericidal concentration (MBC); assay type: cell-based
Text: as §1

[3] = system: Streptococcus pyogenes ATCC 8668 LRP 34; assay: Minimum bactericidal concentration (MBC); assay type: cell-based
Text: as §1

[4] = system: Staphylococcus aureus ATCC 6538 P LRP 39; assay: Minimum bactericidal concentration (MBC); assay type: cell-based
Text: as §1

[5] = system: Streptococcus faecalis subs. zymogenes LRP 61; assay: Minimum bactericidal concentration (MBC); assay type: cell-based
Text: as §1

[6] = system: Streptococcus pneumoniae ATCC 6303 LRP 35; assay: Bacteriostatic power in solid medium (MIC); assay type: cell-based; conditions: Streptococcus pneumoniae, ATCC6303, read-out: Minimum inhibiting concentration
Procedure, shortened: (§2)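 Bacteriostatic, not bactericidal, effect: MIC determined per stock; aerobic and anaerobic species, Gram+ and Gram− alike.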

[7] = system: Staphylococcus aureus ATCC 6538P LRP 39; assay: Bacteriostatic power in solid medium (MIC); assay type: cell-based; conditions: Staphylococcus aureus, ATCC6538P, read-out: Minimum inhibiting concentration
Procedure, shortened: as §2

[8] = system: Streptococcus pneumoniae ATCC 6303 LRP 52; assay: Bacteriostatic power in solid medium (MIC); assay type: cell-based; conditions: Streptococcus pneumoniae, ATCC6303, read-out: Minimum inhibiting concentration
Procedure, shortened: as §2

[9] = system: Streptococcus faecalis subsp. zymogenes ATCC 12958 LRP 61; assay: Bacteriostatic power in solid medium (MIC); assay type: cell-based; conditions: Enterococcus faecalis, ATCC12958, read-out: Minimum inhibiting concentration
Procedure, shortened: as §2

[10] = system: Proteus vulgaris ATCC 6380 LRP 13; assay: Bacteriostatic power in solid medium (MIC); assay type: cell-based; conditions: Proteus vulgaris, ATCC6380, read-out: Minimum inhibiting concentration
Procedure, shortened: as §2

[11] = system: Mycoplasma hominis I ATCC 14027 LRP 211; assay: Bacteriostatic power in solid medium (MIC); assay type: cell-based; conditions: Metamycoplasma hominis, ATCC14027, read-out: Minimum inhibiting concentration
Procedure, shortened: as §2

[12] = system: Micrococcus luteus ATCC 15957 LRP 193; assay: Bacteriostatic power in solid medium (MIC); assay type: cell-based; conditions: Micrococcus luteus, ATCC15957, read-out: Minimum inhibiting concentration
Procedure, shortened: as §2

[13] = system: Klelsiella pneumoniae LRP 54; assay: Bacteriostatic power in solid medium (MIC); assay type: cell-based; conditions: read-out: Minimum inhibiting concentration
Procedure, shortened: as §2

[14] = system: Corynebacterium diphteriae LRP 24; assay: Bacteriostatic power in solid medium (MIC); assay type: cell-based; conditions: Corynebacterium, LRP24, read-out: Minimum inhibiting concentration
Procedure, shortened: as §2

[15] = system: Escherichia coli LRP 50; assay: Bacteriostatic power in solid medium (MIC); assay type: cell-based; conditions: Escherichia coli, LRP50, read-out: Minimum inhibiting concentration
Procedure, shortened: as §2

[16] = system: Bacteroides fragilis ATCC 23745 LRP 205; assay: Bacteriostatic power in solid medium (MIC); assay type: cell-based; conditions: Bacteroides fragilis, ATCC23745, read-out: Minimum inhibiting concentration
Procedure, shortened: as §2

[17] = system: Staphylococcus aureus ATCC 6538P LRP 14; assay: Bacteriostatic power in solid medium (MIC); assay type: cell-based; conditions: Staphylococcus aureus, ATCC6538P, read-out: Minimum inhibiting concentration
Procedure, shortened: as §2

[18] = system: Streptococcus pyogenes ATCC 8668 LRP 34; assay: Bacteriostatic power in solid medium (MIC); assay type: cell-based; conditions: Streptococcus pyogenes, ATCC8668, read-out: Minimum inhibiting concentration
Procedure, shortened: as §2

[19] = system: Bacillus subtilis LRP 25; assay: Bacteriostatic power in solid medium (MIC); assay type: cell-based; conditions: Bacillus subtilis, LRP25, read-out: Minimum inhibiting concentration
Procedure, shortened: as §2

[20] = system: Acholeplasma laidlawii ATCC 23206 LRP 204; assay: Bacteriostatic power in solid medium (MIC); assay type: cell-based; conditions: Acholeplasma laidlawii, ATCC23206, read-out: Minimum inhibiting concentration
Procedure, shortened: as §2

[21] = system: Streptococcus pyogenes ATCC 8668 LRP 197; assay: Bacteriostatic power in solid medium (MIC); assay type: cell-based; conditions: Streptococcus pyogenes, ATCC8668, read-out: Minimum inhibiting concentration
Procedure, shortened: as §2

[22] = system: Fusobacteriumnecrophroum ATCC 27852 LRP 210; assay: Bacteriostatic power in solid medium (MIC); assay type: cell-based; conditions: read-out: Minimum inhibiting concentration
Procedure, shortened: as §2

[23] = system: Neisseria gonorrhoeae ATCC 19424 LRP 214; assay: Bacteriostatic power in solid medium (MIC); assay type: cell-based; conditions: Neisseria gonorrhoeae, ATCC19424, read-out: Minimum inhibiting concentration
Procedure, shortened: as §2

[24] = system: Streptococcus faecalis LRP 7; assay: Bacteriostatic power in solid medium (MIC); assay type: cell-based; conditions: Enterococcus faecalis, LRP7, read-out: Minimum inhibiting concentration
Procedure, shortened: as §2

[25] = Stability in acidic environment at 25° C. (half-life of initial microbiological activity); assay type: physicochemical; conditions: aqueous solution, read-out: t 1/2 (converted)
Experimental: Stability in acidic environnment at 25° C. of the novel
Note: t 1/2 represents the time for reducing to one half the initial powe
of the antibiotic determined by microbiological method through diffusion
on a plate using the test stock Microccocus luteus (Sarcina lutea) ATCC

[26] = system: Streptococcus pneumoniae ATCC 6303 LRP 35; assay: Bacteriostatic power in liquid medium (MIC); assay type: cell-based; conditions: Streptococcus pneumoniae, ATCC6303, read-out: Minimum inhibiting concentration
Procedure, shortened: as §2

[27] = system: Corynebacterium diphteriae LRP 24; assay: Bacteriostatic power in liquid medium (MIC); assay type: cell-based; conditions: Corynebacterium, LRP24, read-out: Minimum inhibiting concentration
Procedure, shortened: as §2

[28] = system: Streptococcus pyogenes ATCC 8668 LRP 34; assay: Bacteriostatic power in liquid medium (MIC); assay type: cell-based; conditions: Streptococcus pyogenes, ATCC8668, read-out: Minimum inhibiting concentration
Procedure, shortened: as §2

[29] = system: Streptococcus faecalis subs. zymogenes ATCC 12958 LRP 61; assay: Bacteriostatic power in liquid medium (MIC); assay type: cell-based; conditions: Enterococcus faecalis, ATCC12958, read-out: Minimum inhibiting concentration
Procedure, shortened: as §2

[30] = system: Staphylococcus aureus ATCC 6538 P LRP 39; assay: Bacteriostatic power in liquid medium (MIC); assay type: cell-based; conditions: Staphylococcus aureus, ATCC6538, read-out: Minimum inhibiting concentration
Procedure, shortened: as §2

[31] = system: Clostridium perfrigens ATCC 3624 LRP 206; assay: microbe, parasite or virus in culture; assay type: cell-based; conditions: ATCC3624, read-out: Minimum inhibiting concentration
Procedure, shortened: as §2

[32] = system: Salmonella typhy LRP 8; assay: microbe, parasite or virus in culture; assay type: cell-based; conditions: LRP8, solid medium, read-out: Minimum inhibiting concentration
Procedure, shortened: as §2

[33] = Serum concentrations in the rat after oral administration; assay type: in vivo; conditions: 100 mg/kg per os
Experimental: administration of 100 mg/kg per os. The values, at the
several sampling times, correspond to mcg of product per ml of serum*.

## CC[C@H]1OC(=O)[C@H](C)[C@@H](O[C@H]2C[C@@](C)(OC)[C@@H](O)[C@H](C)O2)[C@H](C)[C@@H](O[C@@H]2O[C@H](C)C[C@H](N(C)C)[C@H]2O)[C@](C)(O)C[C@](C)(F)C(=O)[C@H](C)[C@@H](O)[C@]1(C)O [P-80206, (8S)-8-fluoroerythromycin A]
[1]
  MBC/MIC: 4
[1]; Streptococcus pneumoniae, ATCC6303, read-out: Minimum bactericidal concentration (MBC)
  MBC: 0.195 µg/mL (≈ 0.259 µM)
[2]
  MBC/MIC: 8
[2]; Corynebacterium, LRP24, read-out: Minimum bactericidal concentration (MBC)
  MBC: 0.097 µg/mL (≈ 0.129 µM)
[3]
  MBC/MIC: 8
[3]; Streptococcus pyogenes, ATCC8668, read-out: Minimum bactericidal concentration (MBC)
  MBC: 0.78 µg/mL (≈ 1.04 µM)
[4]
  MBC/MIC: 16
[4]; Staphylococcus aureus, ATCC6538, read-out: Minimum bactericidal concentration (MBC)
  MBC: 3.12 µg/mL (≈ 4.15 µM)
[5]
  MBC/MIC: 16
[5]; Enterococcus faecalis, read-out: Minimum bactericidal concentration (MBC)
  MBC: 6.25 µg/mL (≈ 8.31 µM)
[6]
  MIC: 0.024 µg/mL (≈ 0.0319 µM)
[7]
  MIC: 0.097 µg/mL (≈ 0.129 µM)
[8]
  MIC: 0.024 µg/mL (≈ 0.0319 µM)
[9]
  MIC: 0.195 µg/mL (≈ 0.259 µM)
[10]
  MIC: 25 µg/mL (≈ 33.2 µM)
[11]
  MIC: 25 µg/mL (≈ 33.2 µM)
[12]
  MIC: 25 µg/mL (≈ 33.2 µM)
[13]
  MIC: 12.5 µg/mL (≈ 16.6 µM)
[14]
  MIC: 0.012 µg/mL (≈ 0.016 µM)
[15]
  MIC: 12.5 µg/mL (≈ 16.6 µM)
[16]
  MIC: 0.195 µg/mL (≈ 0.259 µM)
[17]
  MIC: 0.097 µg/mL (≈ 0.129 µM)
[18]
  MIC: 0.012 µg/mL (≈ 0.016 µM)
[19]
  MIC: 0.049 µg/mL (≈ 0.0652 µM)
[20]
  MIC: 0.097 µg/mL (≈ 0.129 µM)
[21]
  MIC: 0.012 µg/mL (≈ 0.016 µM)
[22]
  MIC: 1.56 µg/mL (≈ 2.07 µM)
[23]
  MIC: 0.049 µg/mL (≈ 0.0652 µM)
[24]
  MIC: 0.195 µg/mL (≈ 0.259 µM)
[25]; pH 2.0, 25° C.
  half-life: 9 h
[25]; pH 3.0, 25° C.
  half-life: 82.5 h
[26]
  MIC: 0.049 µg/mL (≈ 0.0652 µM)
[27]
  MIC: 0.012 µg/mL (≈ 0.016 µM)
[28]
  MIC: 0.097 µg/mL (≈ 0.129 µM)
[29]
  MIC: 0.39 µg/mL (≈ 0.519 µM)
[30]
  MIC: 0.195 µg/mL (≈ 0.259 µM)
[31]
  MIC: 0.78 µg/mL (≈ 1.04 µM)
[32]
  MIC: 12.5 µg/mL (≈ 16.6 µM)
[33]; 0.5 hours, 30 min
  Serum concentration, individual rat: 0.078 mcg of product per ml of serum and 0.198 mcg of product per ml of serum and 0.630 mcg of product per ml of serum and 0.487 mcg of product per ml of serum and 1.105 mcg of product per ml of serum and 1.333 mcg of product per ml of serum
[33]; 1 hour, 60 min
  Serum concentration, individual rat: 8.505 mcg of product per ml of serum and 0.880 mcg of product per ml of serum and 1.273 mcg of product per ml of serum and 1.251 mcg of product per ml of serum and 1.714 mcg of product per ml of serum and 0.531 mcg of product per ml of serum
[33]; 2 hours, 120 min
  Serum concentration, individual rat: 3.712 mcg of product per ml of serum and 6.516 mcg of product per ml of serum and 3.510 mcg of product per ml of serum and 6.907 mcg of product per ml of serum and 6.601 mcg of product per ml of serum and 7.195 mcg of product per ml of serum
[33]; 4 hours, 240 min
  Serum concentration, individual rat: 1.792 mcg of product per ml of serum and 2.134 mcg of product per ml of serum and 1.270 mcg of product per ml of serum and 2.817 mcg of product per ml of serum and 2.362 mcg of product per ml of serum and 2.115 mcg of product per ml of serum
[33]; 6 hours, 360 min
  Serum concentration, individual rat: 0.867 mcg of product per ml of serum and 0.393 mcg of product per ml of serum and 1.192 mcg of product per ml of serum and 1.792 mcg of product per ml of serum and 1.620 mcg of product per ml of serum and 1.147 mcg of product per ml of serum
[33]; rat, in vivo, po, 100 mg/kg, 0.5 hours, read-out: Serum concentration, average
  concentration at 0.5 h: 638 ng/mL
[33]; rat, in vivo, po, 100 mg/kg, 1 hour, read-out: Serum concentration, average
  concentration at 1 h: 2360 ng/mL
[33]; rat, in vivo, po, 100 mg/kg, 2 hours
  concentration at 2 h: 5740 ng/mL
[33]; rat, in vivo, po, 100 mg/kg, 4 hours, read-out: Serum concentration, average
  concentration at 4 h: 2080 ng/mL
[33]; rat, in vivo, po, 100 mg/kg, 6 hours, read-out: Serum concentration, average
  concentration at 6 h: 1170 ng/mL

— patent US4439426A, “Semisynthetic macrolidic antibiotics, intermediate compounds for their preparation and related pharmaceutical compositions containing them” (priority 1981, dated 1984)
